These results are taken from patent US20240226191A1, “COMPOSITIONS AND METHODS FOR TREATING DISEASE” (MICROBA IP PTY LTD, priority 2021, published 2024).

For one assay, the system named is male BALB/c mice. The assay is described as follows: Acute murine model of TNBS-induced colitis. Format: in vivo, mouse. As to the method: Groups of 5 or 10 male BALB/c mice were used. Mice were fasted overnight (Day 1) before 2,4,6-Trinitrobenzene sulfonic acid solution (TNBS challenge on Day 2. Distal colitis was induced by intracolonic instillation of TNBS (1 mg in 0.1 mL 50% ethanol) after which, animals were kept in a vertical position for 30 seconds to ensure that the solution remained in the colon. For the treatments, mice were orally gavaged with 200 μl of M. faecis MH23-3 at 1×10^9 cells/day or vehicle (sterile glycerol and phosphate salt solution) starting from Day 1 (i.e., 1 day before TNBS) to Day 5 for a total of 5 consecutive days (Days 1-5). The positive control Cyclosporin A was given at 75 mg/kg by oral gavage once daily from Day 1 (i.e., 1 day before TNBS) to Day 4 for a total of 4 consecutive days (Days 1-4). On the Day of TNBS challenge, vehicle, M. faecis MH-23.3 and Cyclosporine A were given at 2 hours before TNBS. Animals were sacrificed on Day 5; blood was collected from all animals by cardiac puncture. The colon tissue was also harvested and snap frozen with liquid nitrogen for cytokine measurement. On Day 5, the mice were euthanized by CO2 asphyxiation. Each colon was removed, rinsed, and then cut from 4 cm from the anus. The tissue sections were fixed in 10% formalin and kept in 70% ethanol for histopathology. […]

Assay [1] concerns IL-23 mediated activation of STAT3. In words: HEK-Blue IL-23 reporter cell line STAT3 inducible SEAP reporter assay. Format: cell-based, human. To be noted: cell free culture supernatant (strains grown in TY medium); tofacitinib as inhibitor control. As to the method: To assess STAT3 suppressive activity, three independent colonies were inoculated and grown until early stationary phase. Then, each seed culture broth was used to inoculate two technical replicates each generating six technical replicates from three biological replicates. The technical replicates were grown until early stationary phase and then cell free culture supernatant was harvested as previously described (Giri et al., 2019). Culture supernatants were size fractionated by passing through a 3 kDa CENTRICON® column according to the manufacturer's (Merck Millipore) instructions.
STAT3 activity was assessed using the HEK Blue IL-23 cell line (Invivogen). Briefly, 50,000 cells per well were seeded in triplicate in a 96-well plate 24 hours prior to the start of the assay. Bacteria supernatant or sterile bacterial medium were mixed at a final concentration of 10%, 25%, or 50% v/v with recombinant human IL-23 (rhIL-23, R&D systems) at a final concentration of 5 ng/mL. This mixture was then added directly to the cells and incubated at 37° C. for 6 hours. […] STAT3 regulated SEAP reporter activity was assessed using Quanti Blue solution as recommended by the manufacturer (Invivogen). […] Cytotoxicity was assessed using MTT assay. […] Cytotoxicity was assessed by measuring absorbance at 540 nm as recommended by the manufacturer (Invitrogen, Thermo Fisher, Australia).
For orientation: A reporter such as luciferase makes a cellular process visible.

The subject of assay [2] is mild to moderate flares of ulcerative colitis. To be noted: cited from earlier work.
In a further assay the test system is T84 cells. In words: TEER recovery of barrier integrity after IFNγ (Maestro Pro system). Conditions: IFNγ for 72 hours, then treatment; extract relative to YG/V control. In kind it is cell-based. As to the method:
The ability of MH23 to promote recovery of barrier integrity was also assessed by using the Maestro Pro system. Briefly, T84 cells were grown in (DMEM/F12) supplemented with 10% heat-inactivated foetal bovine serum and 1% Penicillin-Streptomycin in T75 flasks at 37° C., 5% C02 until approximately 75% confluent. Cells were seeded at a density of 0.1×10^6 cells in a total of 0.2 mL/well in 96-well CytoView-Z plates and incubated at 37° C., 5% C02 in the Maestro Pro system (Axion BioSystems, Atlanta, GA, USA). Media was refreshed every three days. Once stabile TEER measurements had been established (approximately 100 h after seeding), cells were stimulated with recombinant human IFNγ (100 ng/mL; R&D systems, Minneapolis, MN, USA). At 72 h post-stimulation, cells were washed with dPBS (ThermoFisher Scientific, Waltham, MA, USA) and media was replaced with DMEM/F12 only, or DMEM/F12 supplemented with Pyrrolidine dithiocarbamate (PDTC; 50 μM), 1×YG/V media control or 1×MH23-3 bacterial culture supernatant extracts prepared using Amberlite XAD-7 resin as previously outlined. All conditions were analysed as quadruplicates. At 5 h post-treatment, TEER measurements were recorded, and the observed effect of treatment was presented as the percentage difference in TEER value compared to the control (untreated T84 cells). Statistical significance was determined by unpaired t-test.

The test system of assay [3] is C57BL/6 female mice. The assay is described as follows: Acute murine model of DSS-induced gut barrier dysfunction (3% DSS). Format: in vivo, mouse. How it is done: (§1) M. faecis and F. prausnitzii strains were grown to early stationary phase in TY medium. The cell density of the individual cultures was calculated using a Helber Counting Chamber. To prepare the bacterial gavage solutions, individual cultures were centrifuged under a layer of sterile heavy mineral oil at 5,000 g for 10 minutes and the cell-free supernatant was then discarded. The cell pellets were washed in 1.5 mL of sterile anaerobic buffered diluent (38 mL/L each of salt solutions 2 & 3 (McSweeney et al., 2005), 1 mL/L of 0.1% (w/v) resazurin solution, 1 g/L L-cysteine) and then centrifuged again. Finally, the washed cell pellet was resuspended in half strength glycerol solution (15% v/v glycerol solution in anoxic buffered diluent) to a final concentration of 1×10^9 cells/mL, aliquoted and frozen at −80° C. until required. The viability of the cell preparations was confirmed by thawing a single aliquot and streaking on an agar plate. The identity and purity of the individual strain preparations was confirmed by whole genome sequencing.
(§2) Six-week-old C57BL/6 female mice purchased from Animal Resources Centres (Western Australia, Australia) were randomised and then co-housed for seven days prior to experimentation. To induce gut barrier dysfunction, mice were treated with 3% DSS ad libiteum in the drinking water for six days. Naïve age matched control mice were processed and received DSS free drinking water. All treatments started one day prior to provision of DSS and all mice were sacrificed two days after the final DSS treatment. For the treatments, mice were anesthetised with isofluorane and orally gavaged with 200 μl of bacterial preparations or vehicle control. Prednisone (2 mg/kg) was administered following anesthetisation by intraperitoneal injection. Body weights and stool consistency were recorded daily. Stool samples were collected daily. Following sacrifice, the colon, liver and spleen were collected for analysis. Blood was collected by cardiac puncture. In the therapeutic model, six-week-old C57BL/6 female mice purchased from Animal Resources Centres (Western Australia, Australia) were randomised and then co-housed for seven days prior to experimentation. To induce gut barrier dysfunction, mice were treated with 2.5% DSS ad libiteum in the drinking water for six days. Naïve age matched control mice were processed and received DSS free drinking water. All treatments started two days prior to completion of the DSS treatments and all mice were sacrificed five days after the final DSS treatment. For the treatments, mice were anesthetised with isofluorane and orally gavaged with 200 μl of bacterial preparations or vehicle control. Prednisone (2 mg/kg) was administered following anesthetisation by intraperitoneal injection. […]

Assay [4] concerns C57BL/6 female mice. The assay is described as follows: Therapeutic model of DSS induced murine colitis (2.5% DSS). Format: in vivo, mouse. To be noted: 2.5% DSS therapeutic model. How it is done:
as §1, §2

For assay [5], the system named is IL-8 secretion in the human gut epithelial HCT116 cell line. The assay is described as follows: IL-8 secretion ELISA in IL-1β treated HCT116 cells (NF-κB activation). In kind it is cell-based. To be noted: HCT116 cells treated with IL-1β; cell free CS relative to the medium control. How it is done: For the ELISA assays, 1×10^4 cells/well of HCT116 cells were seeded in duplicate 96 well plates. HCT116 cells were treated with IL-1β (10 ng) and indole-3-carbinol (5 μM) or culture supernatant (10% v/v) as appropriate and incubated at 37° C. for 16 hours. Then, cell supernatants were collected and analysed using an IL-8 human uncoated ELISA Kit according to the manufacturer's instructions.

“Also recorded” adds a separate entry of the source.

Take cyclosporine A: in the assay on male BALB/c mice, the TNBS-induced histological damage entry was “ameliorated”.

In the case of `C[C@@H]1CCN(C(=O)CC#N)C[C@@H]1N(C)c1ncnc2[nH]ccc12` [tofacitinib], in assay [1], the “IL-23 mediated STAT3 activation (SEAP reporter activity)” value was “prevented; also recorded: inhibits”.

Turning to `Nc1ccc(O)c(C(=O)O)c1` [Mesalmine], the response rates in assay [2] was 40%-70%.

As for `S=C(S)N1CCCC1` [PDTC, Pyrrolidine dithiocarbamate], the “TEER after IFNγ treatment (restoration of barrier integrity)” value in the assay on T84 cells is on record as “ameliorated”.

Turning to `C[C@]12C=CC(=O)C=C1CC[C@@H]1[C@@H]2C(=O)C[C@@]2(C)[C@H]1CC[C@]2(O)C(=O)CO` [prednisone], in the assay with C57BL/6 female mice [3], the “disease pathology / histopathological score” value is on record as “significant improvement”, the epithelial injury entry was “ameliorated” and the inflammation score entry is given as “ameliorated”. In addition, the DSS-induced weight loss result with C57BL/6 female mice [3] (daily treatment) was “exacerbated”. Further, in the assay with C57BL/6 female mice [4], the epithelial injury entry is “ameliorated”, the inflammation score entry is recorded as “ameliorated” and the “pathology / histopathological score” value is reported as “ameliorated”. Further, in the assay on C57BL/6 female mice [4] (relative to the vehicle treatment group), the endoscopic disease activity entry was “significant reduction”.

In the case of `OCc1c[nH]c2ccccc12` [indole-3-carbinol], the IL-8 secretion result in assay [5] is recorded as “prevented”.
